Test results: PMC9437721, “Identification and characterization of two Isatis indigotica O-methyltransferases methylating C-glycosylflavonoids” (Horticulture Research, 2022)
Like-named read-outs stand apart in the source and are kept apart here.

Test system: T1, IiOMT2
T1 construct: N-terminal His6-SUMO tag kept (pE-SUMO), E. coli Rosetta (DE3), Ni-NTA
Assay: O-methyltransferase assay, UPLC, Michaelis-Menten fit
Format: biochemical, Isatis indigotica
Conditions: 480 μM SAM, Tris-HCl pH 9.0, 45 °C
Text: O-methyltransferase assay, UPLC, Michaelis-Menten fit on IiOMT2

Row | Km (read-out: Isoorientin / IiOMT2) [µM] | SMILES | Km (read-out: Luteolin / IiOMT2) [µM]
1 | 62.1 ± 16.1 | O=c1cc(-c2ccc(O)c(O)c2)oc2cc(O)c([C@@H]3O[C@H](CO)[C@@H](O)[C@H](O)[C@H]3O)c(O)c12 [compound 1, isoorientin] | –
2 | – | O=c1cc(-c2ccc(O)c(O)c2)oc2cc(O)cc(O)c12 [compound 2, luteolin] | 77 ± 12.6
